Results reported in ChEMBL document CHEMBL5303573, “Mapping human microbiome drug metabolism by gut bacteria and their genes” (Nature, 2019).

Assay: The drug is tested on Bifidobacterium longum subsp. Infantis strain: CCUG52486 for biotransformation. The drug concentrations were measured before and after a 12-h incubation by liquid-chromatography-coupled mass spectrometry (LC–MS)
Conditions: 2 µM

SMILES	Bacterial Biotransformation
COc1ccc(Cc2nccc3cc(OC)c(OC)cc23)cc1OC [PAPAVERINE]	Compound NOT metabolized
COc1ccccc1N1CCN(CC(O)COc2cccc3ccccc23)CC1 (stereo not drawn) [NAFTOPIDIL]	Compound NOT metabolized
OC(Cn1cncn1)(Cn1cncn1)c1ccc(F)cc1F [FLUCONAZOLE]	Compound NOT metabolized
CN(C(=O)CN(CCO)CC(=O)N(C)C(C)(C)Cc1ccccc1)C(C)(C)Cc1ccccc1 [OXETHAZAINE]	Compound NOT metabolized

Assay: The drug is tested on Bifidobacterium ruminantium strain: fecal isolate for biotransformation. The drug concentrations were measured before and after a 12-h incubation by liquid-chromatography-coupled mass spectrometry (LC–MS)
Conditions: 2 µM

SMILES	Bacterial Biotransformation
COc1ccc(Cc2nccc3cc(OC)c(OC)cc23)cc1OC [PAPAVERINE]	Compound NOT metabolized
OC(Cn1cncn1)(Cn1cncn1)c1ccc(F)cc1F [FLUCONAZOLE]	Compound metabolized
CN(C(=O)CN(CCO)CC(=O)N(C)C(C)(C)Cc1ccccc1)C(C)(C)Cc1ccccc1 [OXETHAZAINE]	Compound NOT metabolized

Assay: The drug is tested on Collinsella aerofaciens strain: ATCC25986 for biotransformation. The drug concentrations were measured before and after a 12-h incubation by liquid-chromatography-coupled mass spectrometry (LC–MS)
Conditions: 2 µM

SMILES	Bacterial Biotransformation
COc1ccc(Cc2nccc3cc(OC)c(OC)cc23)cc1OC [PAPAVERINE]	Compound NOT metabolized
COc1ccccc1N1CCN(CC(O)COc2cccc3ccccc23)CC1 (stereo not drawn) [NAFTOPIDIL]	Compound NOT metabolized
OC(Cn1cncn1)(Cn1cncn1)c1ccc(F)cc1F [FLUCONAZOLE]	Compound NOT metabolized
CN(C(=O)CN(CCO)CC(=O)N(C)C(C)(C)Cc1ccccc1)C(C)(C)Cc1ccccc1 [OXETHAZAINE]	Compound NOT metabolized

Assay: The drug is tested on Bacteroides dorei strain: DSM17855 for biotransformation. The drug concentrations were measured before and after a 12-h incubation by liquid-chromatography-coupled mass spectrometry (LC–MS)
Conditions: phocaeicola dorei, 2 µM

SMILES	Bacterial Biotransformation
COc1ccc(Cc2nccc3cc(OC)c(OC)cc23)cc1OC [PAPAVERINE]	Compound metabolized
COc1ccccc1N1CCN(CC(O)COc2cccc3ccccc23)CC1 (stereo not drawn) [NAFTOPIDIL]	Compound NOT metabolized
OC(Cn1cncn1)(Cn1cncn1)c1ccc(F)cc1F [FLUCONAZOLE]	Compound metabolized

Assay: The drug is tested on Bacteroides finegoldii strain: DSM17565 for biotransformation. The drug concentrations were measured before and after a 12-h incubation by liquid-chromatography-coupled mass spectrometry (LC–MS)
Conditions: 2 µM

SMILES	Bacterial Biotransformation
COc1ccc(Cc2nccc3cc(OC)c(OC)cc23)cc1OC [PAPAVERINE]	Compound NOT metabolized
COc1ccccc1N1CCN(CC(O)COc2cccc3ccccc23)CC1 (stereo not drawn) [NAFTOPIDIL]	Compound NOT metabolized
OC(Cn1cncn1)(Cn1cncn1)c1ccc(F)cc1F [FLUCONAZOLE]	Compound NOT metabolized
CN(C(=O)CN(CCO)CC(=O)N(C)C(C)(C)Cc1ccccc1)C(C)(C)Cc1ccccc1 [OXETHAZAINE]	Compound NOT metabolized

Assay: The drug is tested on Bacteroides sp. WH2 strain: WH2 for biotransformation. The drug concentrations were measured before and after a 12-h incubation by liquid-chromatography-coupled mass spectrometry (LC–MS)
Conditions: bacteroides sp. wh2, 12 h, 2 µM

SMILES	Bacterial Biotransformation
COc1ccc(Cc2nccc3cc(OC)c(OC)cc23)cc1OC [PAPAVERINE]	Compound NOT metabolized
COc1ccccc1N1CCN(CC(O)COc2cccc3ccccc23)CC1 (stereo not drawn) [NAFTOPIDIL]	Compound NOT metabolized
OC(Cn1cncn1)(Cn1cncn1)c1ccc(F)cc1F [FLUCONAZOLE]	Compound NOT metabolized
CN(C(=O)CN(CCO)CC(=O)N(C)C(C)(C)Cc1ccccc1)C(C)(C)Cc1ccccc1 [OXETHAZAINE]	Compound NOT metabolized

Assay: The drug is tested on Bacteroides xylanisolvens strain: DSM18836 for biotransformation. The drug concentrations were measured before and after a 12-h incubation by liquid-chromatography-coupled mass spectrometry (LC–MS)
Conditions: 2 µM

SMILES	Bacterial Biotransformation
COc1ccc(Cc2nccc3cc(OC)c(OC)cc23)cc1OC [PAPAVERINE]	Compound NOT metabolized
COc1ccccc1N1CCN(CC(O)COc2cccc3ccccc23)CC1 (stereo not drawn) [NAFTOPIDIL]	Compound NOT metabolized
OC(Cn1cncn1)(Cn1cncn1)c1ccc(F)cc1F [FLUCONAZOLE]	Compound metabolized

Assay: The drug is tested on Anaerotruncus colihominis strain: DSM17241 for biotransformation. The drug concentrations were measured before and after a 12-h incubation by liquid-chromatography-coupled mass spectrometry (LC–MS)
Conditions: 2 µM

SMILES	Bacterial Biotransformation
COc1ccc(Cc2nccc3cc(OC)c(OC)cc23)cc1OC [PAPAVERINE]	Compound NOT metabolized
COc1ccccc1N1CCN(CC(O)COc2cccc3ccccc23)CC1 (stereo not drawn) [NAFTOPIDIL]	Compound NOT metabolized
OC(Cn1cncn1)(Cn1cncn1)c1ccc(F)cc1F [FLUCONAZOLE]	Compound metabolized
CN(C(=O)CN(CCO)CC(=O)N(C)C(C)(C)Cc1ccccc1)C(C)(C)Cc1ccccc1 [OXETHAZAINE]	Compound NOT metabolized

Assay: The drug is tested on Clostridium ramosum strain: DSM1402 for biotransformation. The drug concentrations were measured before and after a 12-h incubation by liquid-chromatography-coupled mass spectrometry (LC–MS)
Conditions: thomasclavelia ramosa, 2 µM

SMILES	Bacterial Biotransformation
COc1ccc(Cc2nccc3cc(OC)c(OC)cc23)cc1OC [PAPAVERINE]	Compound NOT metabolized
COc1ccccc1N1CCN(CC(O)COc2cccc3ccccc23)CC1 (stereo not drawn) [NAFTOPIDIL]	Compound NOT metabolized
OC(Cn1cncn1)(Cn1cncn1)c1ccc(F)cc1F [FLUCONAZOLE]	Compound NOT metabolized
CN(C(=O)CN(CCO)CC(=O)N(C)C(C)(C)Cc1ccccc1)C(C)(C)Cc1ccccc1 [OXETHAZAINE]	Compound NOT metabolized

Assay: The drug is tested on Eubacterium hallii strain: DSM3353 for biotransformation. The drug concentrations were measured before and after a 12-h incubation by liquid-chromatography-coupled mass spectrometry (LC–MS)
Conditions: anaerobutyricum hallii, 2 µM

SMILES	Bacterial Biotransformation
COc1ccc(Cc2nccc3cc(OC)c(OC)cc23)cc1OC [PAPAVERINE]	Compound NOT metabolized
COc1ccccc1N1CCN(CC(O)COc2cccc3ccccc23)CC1 (stereo not drawn) [NAFTOPIDIL]	Compound NOT metabolized
CN(C(=O)CN(CCO)CC(=O)N(C)C(C)(C)Cc1ccccc1)C(C)(C)Cc1ccccc1 [OXETHAZAINE]	Compound NOT metabolized

Assay: The drug is tested on Eubacterium ventriosum strain: ATCC27560 for biotransformation. The drug concentrations were measured before and after a 12-h incubation by liquid-chromatography-coupled mass spectrometry (LC–MS)
Type: ADME
Parameters: dose 2 uM, timepoint 0 vs 12 hours
Conditions: 2 µM

SMILES	Bacterial Biotransformation
COc1ccc(Cc2nccc3cc(OC)c(OC)cc23)cc1OC [PAPAVERINE]	Compound NOT metabolized
COc1ccccc1N1CCN(CC(O)COc2cccc3ccccc23)CC1 (stereo not drawn) [NAFTOPIDIL]	Compound NOT metabolized
OC(Cn1cncn1)(Cn1cncn1)c1ccc(F)cc1F [FLUCONAZOLE]	Compound NOT metabolized
CN(C(=O)CN(CCO)CC(=O)N(C)C(C)(C)Cc1ccccc1)C(C)(C)Cc1ccccc1 [OXETHAZAINE]	Compound NOT metabolized

Assay: The drug is tested on Ruminococcus gnavus strain: ATCC29149 for biotransformation. The drug concentrations were measured before and after a 12-h incubation by liquid-chromatography-coupled mass spectrometry (LC–MS)
Conditions: mediterraneibacter gnavus, 2 µM

SMILES	Bacterial Biotransformation
COc1ccc(Cc2nccc3cc(OC)c(OC)cc23)cc1OC [PAPAVERINE]	Compound NOT metabolized
COc1ccccc1N1CCN(CC(O)COc2cccc3ccccc23)CC1 (stereo not drawn) [NAFTOPIDIL]	Compound NOT metabolized
OC(Cn1cncn1)(Cn1cncn1)c1ccc(F)cc1F [FLUCONAZOLE]	Compound metabolized
CN(C(=O)CN(CCO)CC(=O)N(C)C(C)(C)Cc1ccccc1)C(C)(C)Cc1ccccc1 [OXETHAZAINE]	Compound NOT metabolized

Assay: The drug is tested on Providencia stuartii strain: ATCC25827 for biotransformation. The drug concentrations were measured before and after a 12-h incubation by liquid-chromatography-coupled mass spectrometry (LC–MS)
Conditions: 2 µM

SMILES	Bacterial Biotransformation
COc1ccc(Cc2nccc3cc(OC)c(OC)cc23)cc1OC [PAPAVERINE]	Compound NOT metabolized
COc1ccccc1N1CCN(CC(O)COc2cccc3ccccc23)CC1 (stereo not drawn) [NAFTOPIDIL]	Compound NOT metabolized
CN(C(=O)CN(CCO)CC(=O)N(C)C(C)(C)Cc1ccccc1)C(C)(C)Cc1ccccc1 [OXETHAZAINE]	Compound NOT metabolized

Conditions: bacteroides fragilis, 12 h, 2 µM
Description: The drug is tested on Bacteroides fragilis strain: NCTC 9343 for biotransformation. The drug concentrations were measured before and after a 12-h incubation by liquid-chromatography-coupled mass spectrometry (LC–MS)

SMILES	Bacterial Biotransformation
COc1ccccc1N1CCN(CC(O)COc2cccc3ccccc23)CC1 (stereo not drawn) [NAFTOPIDIL]	Compound NOT metabolized
OC(Cn1cncn1)(Cn1cncn1)c1ccc(F)cc1F [FLUCONAZOLE]	Compound metabolized

Conditions: bacteroides intestinalis, 12 h, 2 µM
Description: The drug is tested on Bacteroides intestinalis strain: DSM17393 for biotransformation. The drug concentrations were measured before and after a 12-h incubation by liquid-chromatography-coupled mass spectrometry (LC–MS)

SMILES	Bacterial Biotransformation
COc1ccc(Cc2nccc3cc(OC)c(OC)cc23)cc1OC [PAPAVERINE]	Compound NOT metabolized
COc1ccccc1N1CCN(CC(O)COc2cccc3ccccc23)CC1 (stereo not drawn) [NAFTOPIDIL]	Compound NOT metabolized

Conditions: bacteroides thetaiotaomicron, 12 h, 2 µM
Description: The drug is tested on Bacteroides thetaiotaomicron strain: 3731 for biotransformation. The drug concentrations were measured before and after a 12-h incubation by liquid-chromatography-coupled mass spectrometry (LC–MS)

SMILES	Bacterial Biotransformation
COc1ccc(Cc2nccc3cc(OC)c(OC)cc23)cc1OC [PAPAVERINE]	Compound NOT metabolized
COc1ccccc1N1CCN(CC(O)COc2cccc3ccccc23)CC1 (stereo not drawn) [NAFTOPIDIL]	Compound NOT metabolized
CN(C(=O)CN(CCO)CC(=O)N(C)C(C)(C)Cc1ccccc1)C(C)(C)Cc1ccccc1 [OXETHAZAINE]	Compound NOT metabolized

Conditions: limosilactobacillus reuteri cf48-3a, 12 h, 2 µM
Description: The drug is tested on Lactobacillus reuteri CF48-3A strain: BEI HM-102 for biotransformation. The drug concentrations were measured before and after a 12-h incubation by liquid-chromatography-coupled mass spectrometry (LC–MS)

SMILES	Bacterial Biotransformation
COc1ccc(Cc2nccc3cc(OC)c(OC)cc23)cc1OC [PAPAVERINE]	Compound NOT metabolized
COc1ccccc1N1CCN(CC(O)COc2cccc3ccccc23)CC1 (stereo not drawn) [NAFTOPIDIL]	Compound NOT metabolized
OC(Cn1cncn1)(Cn1cncn1)c1ccc(F)cc1F [FLUCONAZOLE]	Compound NOT metabolized

Conditions: roseburia intestinalis, 12 h, 2 µM
Description: The drug is tested on Roseburia intestinalis strain: L1-82 for biotransformation. The drug concentrations were measured before and after a 12-h incubation by liquid-chromatography-coupled mass spectrometry (LC–MS)

SMILES	Bacterial Biotransformation
COc1ccc(Cc2nccc3cc(OC)c(OC)cc23)cc1OC [PAPAVERINE]	Compound NOT metabolized
COc1ccccc1N1CCN(CC(O)COc2cccc3ccccc23)CC1 (stereo not drawn) [NAFTOPIDIL]	Compound NOT metabolized
CN(C(=O)CN(CCO)CC(=O)N(C)C(C)(C)Cc1ccccc1)C(C)(C)Cc1ccccc1 [OXETHAZAINE]	Compound NOT metabolized

Conditions: akkermansia muciniphila, 12 h, 2 µM
Description: The drug is tested on Akkermansia muciniphila strain: ATCC BAA-835 for biotransformation. The drug concentrations were measured before and after a 12-h incubation by liquid-chromatography-coupled mass spectrometry (LC–MS)

SMILES	Bacterial Biotransformation
COc1ccccc1N1CCN(CC(O)COc2cccc3ccccc23)CC1 (stereo not drawn) [NAFTOPIDIL]	Compound NOT metabolized
OC(Cn1cncn1)(Cn1cncn1)c1ccc(F)cc1F [FLUCONAZOLE]	Compound metabolized
CN(C(=O)CN(CCO)CC(=O)N(C)C(C)(C)Cc1ccccc1)C(C)(C)Cc1ccccc1 [OXETHAZAINE]	Compound NOT metabolized
